According to patent EP0417803A1, “[N-(gamma-glutamyl)glycyl] alanine derivatives” (SANDOZ LTD., priority 1989, dated 1991):

Assay: Induction of endotoxin shock in the mouse
Details: in vivo, read-out: LD₅₀
Text: The test method is essentially as described in GB 2'179'945 A and DE 37'30'905.

**Q.** With CCCCCCC(=O)N[C@H](CCC(=O)N[C@H](/C=C/CC(O)C(=O)OCCCC)C(=O)N[C@@H](C)C(=O)OCC)C(=O)OCc1ccccc1 (stereo partly drawn) [Example 1, {N-[N′-Heptanoyl-(R)-γ-glutamyl-(α-benzylester)]-(R)-α-[2-(RS)-hydroxypent-4-enoic acid butyl ester-5-yl]glycyl]-(S)-alanine ethyl ester] as the compound, how does the LD50 read?
**A.** 12 mg/kg
